Like-named read-outs stand apart in the source and are kept apart here. Values belong to the molecule of their own block, whether it stands above or below them.
How the values were obtained:
[1] = biological target: STAT6 (Homo sapiens (Human), UniProt P42226); experiment: STAT6 degrader assay (HiBiT, HeLa LgBiT clone 4.14); format: cell-based
In short: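 DC50 (nM) comes from luminescence of non-degraded STAT6 read 0.5 h after Nano-GLO addition, following 4-24 h compound exposure at 37° C. Cells were HeLa clone 4.14 expressing LgBiT with a CRISPR HiBiT tag on endogenous STAT6; 50 μM terfenadine set full degradation.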

[2] = tested on: eotaxin-3 release; experiment: Human whole blood eotaxin-3 assay (IL-4 stimulated); format: cell-based
In short: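 Human whole blood was preincubated with compound for 120 min at 37 °C, then stimulated with recombinant human IL-4 (E. coli) at 0.4 nM final for 48 h. Inhibition of eotaxin-3 release gave EC50 values.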

[3] = HeLa LgBiT clone 4.14, 4-24 h; geometric mean; given for compounds with >80% Emax; read-out: STAT6 degradation DC50
[4] = human whole blood, IL-4 0.4 nM, 48 hours, geometric mean, given for compounds with >80% Emax, read-out: Eotaxin-3 EC50

Sequence of STAT6 (P42226 whole entry): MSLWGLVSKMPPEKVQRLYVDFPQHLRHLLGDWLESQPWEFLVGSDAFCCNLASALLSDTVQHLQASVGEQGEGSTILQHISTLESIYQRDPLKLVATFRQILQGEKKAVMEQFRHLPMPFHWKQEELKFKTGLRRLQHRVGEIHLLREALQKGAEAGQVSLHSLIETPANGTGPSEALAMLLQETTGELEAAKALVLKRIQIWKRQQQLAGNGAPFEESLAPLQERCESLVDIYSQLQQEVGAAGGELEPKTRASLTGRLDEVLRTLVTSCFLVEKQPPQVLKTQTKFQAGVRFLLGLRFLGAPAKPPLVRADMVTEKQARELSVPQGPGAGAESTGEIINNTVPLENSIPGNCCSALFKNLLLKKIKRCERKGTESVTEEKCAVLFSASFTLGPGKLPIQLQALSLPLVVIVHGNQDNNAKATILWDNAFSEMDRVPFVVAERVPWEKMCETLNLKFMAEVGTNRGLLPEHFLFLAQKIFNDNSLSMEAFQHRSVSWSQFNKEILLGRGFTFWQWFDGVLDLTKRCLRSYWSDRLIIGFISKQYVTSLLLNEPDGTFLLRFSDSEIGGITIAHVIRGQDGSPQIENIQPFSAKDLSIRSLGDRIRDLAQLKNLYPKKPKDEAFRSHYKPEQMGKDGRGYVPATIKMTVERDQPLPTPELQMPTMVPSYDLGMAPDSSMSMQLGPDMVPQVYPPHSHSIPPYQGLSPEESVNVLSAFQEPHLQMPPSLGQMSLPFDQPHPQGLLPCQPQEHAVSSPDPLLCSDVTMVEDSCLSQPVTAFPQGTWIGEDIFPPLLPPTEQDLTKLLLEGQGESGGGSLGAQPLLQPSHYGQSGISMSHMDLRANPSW

SMILES: C[C@@H](c1cc2c(-c3ccc(N)nc3)ccnc2n1C)N1CCC(c2ccc(C(=O)N3CCC(CN4CCN(Cc5ccc6c(c5)n(C)c(=O)n6C5CCC(=O)NC5=O)C[C@H]4C(F)(F)F)CC3)cc2)CC1 (stereo partly drawn) [Example 3e43, 3-(5-(((S)-4-((1-(4-(1-((S)-1-(4-(6-aminopyridin-3-yl)-1-methyl-1H-pyrrolo[2,3-b]pyridin-2-yl)ethyl)piperidin-4-yl)benzoyl)piperidin-4-yl)methyl)-3-(trifluoro-methyl)piperazin-1-yl)methyl)-3-methyl-2-oxo-2,3-dihydro-1H-benzo[d]imidazol-1-yl)piperidine-2,6-dione]
DC50 [1, 3]: 2.8 nM
EC50 [2, 4]: 4.6 nM

SMILES: C[C@H]1CN(Cc2ccc3c(c2)n(C)c(=O)n3C2CCC(=O)NC2=O)CCN1CC1CCN(C(=O)c2ccc(C3CCN([C@@H](C)c4cc5c(-c6cnc(N)c(F)c6)ccnc5n4C)CC3)cc2)CC1 (stereo partly drawn) [Example 3e47, 3-(5-(((S)-4-((1-(4-(1-((S)-1-(4-(6-amino-5-fluoropyridin-3-yl)-1-methyl-1H-pyrrolo[2,3-b]pyridin-2-yl)ethyl)piperidin-4-yl)benzoyl)piperidin-4-yl)methyl)-3-methylpiperazin-1-yl)methyl)-3-methyl-2-oxo-2,3-dihydro-1H-benzo[d]imidazol-1-yl)piperidine-2,6-dione]
DC50 [1, 3]: 2.2 nM
EC50 [2, 4]: 4.9 nM

SMILES: C[C@H]1CN(Cc2ccc3c(c2)n(C)c(=O)n3C2CCC(=O)NC2=O)CCN1CC1CCN(C(=O)c2ccc(C3CCN([C@@H](C)c4cc5c(-c6ccc(N)nn6)ccnc5n4C)CC3)cc2)CC1 (stereo partly drawn) [Example 3e52, 3-(5-(((S)-4-((1-(4-(1-((S)-1-(4-(6-aminopyridazin-3-yl)-1-methyl-1H-pyrrolo[2,3-b]pyridin-2-yl)ethyl)piperidin-4-yl)benzoyl)piperidin-4-yl)methyl)-3-methylpiperazin-1-yl)methyl)-3-methyl-2-oxo-2,3-dihydro-1H-benzo[d]imidazol-1-yl)piperidine-2,6-dione]
DC50 ([1]; read-out: STAT6 degradation DC50; HeLa LgBiT clone 4.14, 4-24 h; geometric mean; given for compounds with >80% Emax): 0.9 nM
EC50 ([2]; Homo sapiens, 48 h, read-out: Eotaxin-3 EC50 (nM)): 1.5 nM

SMILES: C[C@@H](c1cc2c(-c3ccc(N)nc3)ccnc2n1C)N1CCC(c2ccc(C(=O)N3CCC(CN4CCN(Cc5cc6c(cc5F)N(C5CCC(=O)NC5=O)C(=O)C65CC5)CC4)CC3)cc2)CC1 (stereo partly drawn) [Example 3h9, 3-(5′-((4-((1-(4-(1-((S)-1-(4-(6-aminopyridin-3-yl)-1-methyl-1H-pyrrolo[2,3-b]pyridin-2-yl)ethyl)piperidin-4-yl)benzoyl)piperidin-4-yl)methyl)piperazin-1-yl)methyl)-6′-fluoro-2′-oxospiro[cyclopropane-1,3′-indolin]-1′-yl)piperidine-2,6-dione]
DC50 [1, 3]: 12.7 nM
EC50 [2, 4]: 43.7 nM

SMILES: C[C@@H](c1cc2c(-c3ccc(N)nc3)ccnc2n1C)N1CCC(c2ccc(C(=O)N3CCC(CC4CCN(c5ccc6c(c5)C5(CC5)C(=O)N6C5CCC(=O)NC5=O)CC4)CC3)cc2)CC1 (stereo partly drawn) [Example 3h13, 3-(5′-(4-((1-(4-(1-((S)-1-(4-(6-aminopyridin-3-yl)-1-methyl-1H-pyrrolo[2,3-b]pyridin-2-yl)ethyl)piperidin-4-yl)benzoyl)piperidin-4-yl)methyl)piperidin-1-yl)-2′-oxospiro[cyclopropane-1,3′-indolin]-1′-yl)piperidine-2,6-dione]
DC50 [1, 3]: 48.7 nM
EC50 [2, 4]: 23.2 nM

SMILES: CNc1ccc(-c2ccnc3c2cc([C@H](C)N2CC=C(c4c(C)cc(C(=O)N5CCC(CN6CCN(Cc7ccc8c(c7)C(C)(C)C(=O)N8C7CCC(=O)NC7=O)C[C@@H]6C)CC5)cc4F)CC2)n3C)cn1 (stereo partly drawn) [Example 3h18, 3-(5-(((S)-4-((1-(3-fluoro-5-methyl-4-(1-((S)-1-(1-methyl-4-(6-(methylamino)pyridin-3-yl)-1H-pyrrolo[2,3-b]pyridin-2-yl)ethyl)-1,2,3,6-tetrahydropyridin-4-yl)benzoyl)piperidin-4-yl)methyl)-3-methylpiperazin-1-yl)methyl)-3,3-dimethyl-2-oxoindolin-1-yl)piperidine-2,6-dione]
DC50 [1, 3]: 6.3 nM
EC50 [2, 4]: 12.3 nM

More lines, in order of falling DC50 [1, 3], values ahead:

DC50 [1, 3]: 1.9 nM
EC50 [2, 4]: 7.5 nM
SMILES: C[C@@H](c1cc2c(-c3ccc(N)nc3)ccnc2n1C)N1CCC(c2ccc(C(=O)N3CCC(CN4CCN(Cc5ccc6c(c5)n(CC5CC5)c(=O)n6C5CCC(=O)NC5=O)CC4)CC3)cc2)CC1 (stereo partly drawn) [Example 3e53, 3-(5-((4-((1-(4-(1-((S)-1-(4-(6-aminopyridin-3-yl)-1-methyl-1H-pyrrolo[2,3-b]pyridin-2-yl)ethyl)piperidin-4-yl)benzoyl)piperidin-4-yl)methyl)piperazin-1-yl)methyl)-3-(cyclopropylmethyl)-2-oxo-2,3-dihydro-1H-benzo[d]imidazol-1-yl)piperidine-2,6-dione]

DC50 [1, 3]: 1.8 nM
EC50 [2, 4]: 3.4 nM
SMILES: C[C@@H](c1cc2c(-c3ccc(N)nc3)ccnc2n1C)N1CCC(c2ccc(C(=O)N3CCC(CN4CCN(Cc5ccc6c(c5)n(C)c(=O)n6C5CCC(=O)NC5=O)C[C@@H]4C(F)(F)F)CC3)cc2)CC1 (stereo partly drawn) [Example 3e42, 3-(5-(((R)-4-((1-(4-(1-((S)-1-(4-(6-aminopyridin-3-yl)-1-methyl-1H-pyrrolo[2,3-b]pyridin-2-yl)-ethyl)piperidin-4-yl)benzoyl)piperidin-4-yl)methyl)-3-(trifluoromethyl)piperazin-1-yl)methyl)-3-methyl-2-oxo-2,3-dihydro-1H-benzo[d]imidazol-1-yl)piperidine-2,6-dione]

DC50 [1, 3]: 0.8 nM
EC50 [2, 4]: 2.1 nM
SMILES: C[C@H]1CN(Cc2ccc3c(c2)n(C)c(=O)n3C2CCC(=O)NC2=O)CCN1CC1(F)CCN(C(=O)c2ccc(C3CCN([C@@H](C)c4cc5c(-c6ccc(N)nc6)ccnc5n4C)CC3)cc2)CC1 (stereo partly drawn) [Example 3e45, 3-(5-(((S)-4-((1-(4-(1-((S)-1-(4-(6-aminopyridin-3-yl)-1-methyl-1H-pyrrolo[2,3-b]pyridin-2-yl)ethyl)piperidin-4-yl)benzoyl)-4-fluoropiperidin-4-yl)methyl)-3-methylpiperazin-1-yl)methyl)-3-methyl-2-oxo-2,3-dihydro-1H-benzo[d]imidazol-1-yl)piperidine-2,6-dione]

DC50 [1, 3]: 0.8 nM
EC50 [2, 4]: 1.9 nM
SMILES: C[C@H]1CN(Cc2cc3c(cc2F)n(C2CCC(=O)NC2=O)c(=O)n3C2CC2)CCN1CC1CCN(C(=O)c2ccc(C3CCN([C@@H](C)c4cc5c(-c6ccc(N)nc6)ccnc5n4C)CC3)cc2)CC1 (stereo partly drawn) [Example 3e58, 3-(5-(((S)-4-((1-(4-(1-((S)-1-(4-(6-aminopyridin-3-yl)-1-methyl-1H-pyrrolo[2,3-b]pyridin-2-yl)ethyl)piperidin-4-yl)benzoyl)piperidin-4-yl)methyl)-3-methylpiperazin-1-yl)methyl)-3-cyclopropyl-6-fluoro-2-oxo-2,3-dihydro-1H-benzo[d]imidazol-1-yl)piperidine-2,6-dione]

DC50 [1, 3]: 0.7 nM
EC50 [2, 4]: 3.6 nM
SMILES: C[C@H]1CN(Cc2ccc3c(c2)n(CC2CC2)c(=O)n3C2CCC(=O)NC2=O)CCN1CC1CCN(C(=O)c2ccc(C3CCN([C@@H](C)c4cc5c(-c6ccc(N)nc6)ccnc5n4C)CC3)cc2)CC1 (stereo partly drawn) [Example 3e54, 3-(5-(((S)-4-((1-(4-(1-((S)-1-(4-(6-aminopyridin-3-yl)-1-methyl-1H-pyrrolo[2,3-b]pyridin-2-yl)ethyl)piperidin-4-yl)benzoyl)piperidin-4-yl)methyl)-3-methylpiperazin-1-yl)methyl)-3-(cyclo-propylmethyl)-2-oxo-2,3-dihydro-1H-benzo[d]imidazol-1-yl)piperidine-2,6-dione]

DC50 [1, 3]: 0.5 nM
EC50 [2, 4]: 1.5 nM
SMILES: C[C@H]1CN(Cc2ccc3c(c2)n(C)c(=O)n3C2CCC(=O)NC2=O)CCN1CC1CCN(C(=O)c2ccc(C3CCN([C@@H](C)c4cc5c(-c6ccc(N)nc6C#N)ccnc5n4C)CC3)cc2)CC1 (stereo partly drawn) [Example 3e55, 6-amino-3-(2-((1S)-1-(4-(4-(4-(((2S)-4-((1-(2,6-dioxopiperidin-3-yl)-3-methyl-2-oxo-2,3-dihydro-1H-benzo[d]imidazol-5-yl)methyl)-2-methylpiperazin-1-yl)methyl)piperidine-1-carbonyl)phenyl)-piperidin-1-yl)ethyl)-1-methyl-1H-pyrrolo[2,3-b]pyridin-4-yl)picolinonitrile]

DC50 [1, 3]: 0.4 nM
EC50 [2, 4]: 2.6 nM
SMILES: C[C@H]1CN(Cc2ccc3c(c2)n(C)c(=O)n3C2CCC(=O)NC2=O)CCN1CC1CCN(C(=O)c2ccc(C3CCN([C@@H](C)c4cc5c(-c6ccc(N)cn6)ccnc5n4C)CC3)cc2)CC1 (stereo partly drawn) [Example 3e56, 3-(5-(((S)-4-((1-(4-(1-((S)-1-(4-(5-aminopyridin-2-yl)-1-methyl-1H-pyrrolo[2,3-b]pyridin-2-yl)ethyl)piperidin-4-yl)benzoyl)piperidin-4-yl)methyl)-3-methylpiperazin-1-yl)methyl)-3-methyl-2-oxo-2,3-dihydro-1H-benzo[d]imidazol-1-yl)piperidine-2,6-dione]

DC50 [1, 3]: 0.3 nM
EC50 [2, 4]: 2.8 nM
SMILES: CNc1ccc(-c2ccnc3c2cc([C@H](C)N2CC=C(c4c(C)cc(C(=O)N(C)c5ccc(C6CCN(Cc7ccc8c(c7)C7(CC7)C(=O)N8C7CCC(=O)NC7=O)CC6)cc5)cc4F)CC2)n3C)cn1 (stereo partly drawn) [Example 3h11, N-(4-(1-((1′-(2,6-dioxopiperidin-3-yl)-2′-oxospiro[cyclopropane-1,3′-indolin]-5′-yl)methyl)piperidin-4-yl)phenyl)-3-fluoro-N,5-dimethyl-4-(1-((S)-1-(1-methyl-4-(6-(methylamino)pyridin-3-yl)-1H-pyrrolo[2,3-b]pyridin-2-yl)ethyl)-1,2,3,6-tetrahydropyridin-4-yl)benzamide]
